# Legend:
# [1] = target: T1, aldehyde dehydrogenase (low Km) (Rattus norvegicus, UniProt P11884); assay: In vitro inhibition of aldehyde dehydrogenase of low Km, rat liver homogenate; format: biochemical; conditions: 1 h incubation, 2760 μmol/liter, water ref. = 100, double determinations, 4 rats, read-out: Residual activity of aldehyde dehydrogenase (Low Km in % of ref. value)
# T1 construct: The aldehyde dehydrogenase activity in the homogenate after incubation for 1 h; from tissue; host or cells: rat liver homogenate
# T1 sequence (P11884 20-519): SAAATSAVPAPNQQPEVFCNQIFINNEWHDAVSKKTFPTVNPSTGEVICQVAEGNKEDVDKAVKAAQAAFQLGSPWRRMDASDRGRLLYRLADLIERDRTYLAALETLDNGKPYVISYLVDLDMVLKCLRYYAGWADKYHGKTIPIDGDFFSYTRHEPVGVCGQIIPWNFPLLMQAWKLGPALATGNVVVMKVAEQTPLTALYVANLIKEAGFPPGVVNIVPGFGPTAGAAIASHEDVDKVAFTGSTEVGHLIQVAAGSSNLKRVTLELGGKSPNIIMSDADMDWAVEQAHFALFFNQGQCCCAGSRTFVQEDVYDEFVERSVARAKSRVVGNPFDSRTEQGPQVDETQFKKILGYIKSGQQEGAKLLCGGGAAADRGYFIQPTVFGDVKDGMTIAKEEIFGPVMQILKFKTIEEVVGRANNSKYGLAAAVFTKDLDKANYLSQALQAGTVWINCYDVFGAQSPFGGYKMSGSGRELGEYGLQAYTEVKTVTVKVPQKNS
# Protocol: (§1) METHOD FOR INHIBITING ALDEHYDE DEHYDROGENASE
# (§2) Fractionation of rat liver homogenates was performed according to Tottmar et al, Biochem. J. 1973:135:577. The aldehyde dehydrogenase activity in the homogenate after incubation for 1 h with different thiocarbamic acid esters (see Table 1) was measured spectrophotometrically in 50 μl aliquots by following the reduction of NAD to NADH at 340 nm at 37° C. in the presence of the substrate acetaldehyde […], as described by Tottmar and Marcher (Acta Pharmacol. et Toxicol. 1976:38:366).
# (§3) In vitro inhibition of aldehyde dehydrogenase of low Km
# (§4) The values are X±SD of double determinations, on the one hand in homogenates from 4 rats and, on the other hand, in bovine liver (last two values in Table 1).
# (§5) The concentration=2760 μmol/liter for all compounds, except the last two compounds for which the concentration was 3.0 mmol/liter.
# [2] = system: aldehyde dehydrogenase (low Km); assay: In vitro inhibition of aldehyde dehydrogenase, measured on bovine liver; format: biochemical; conditions: 3.0 mmol/liter, water ref. = 100, double determinations, 60 min
# Protocol: as §1, §2, §3
# *Measured on bovine liver
# as §4, §5
# [3] = system: rats; assay: "Antabuse-alcohol" reaction on rats by tonometry (diastolic blood pressure after ethanol); format: in vivo, rat; conditions: N = 3, salt water 92.5 ± 5.2
# Protocol: Method of assessing the "Antabuse®-alcohol" reaction on rats by tonometry
# These measurements were performed on a selected compound. The substance employed is diethyl thiocarbamic acid-S-methyl ester (referred to as DTSM hereinafter).
# Male rats having a body weight of 300-400 g were anaesthetised with urethane 1.25 g/kg i.p. On a group of 4 rats, a catheter filled with heparin-salt water was inserted by operative surgery in one carotid artery, and the blood pressure was recorded before and after intraperitoneal injection of ethanol (1 g/kg, 10 ml/kg of 10% v/v ethanol in water). Two other groups of 3 rats each were treated intraperitoneally with DTSM for 1 and 2 hours, respectively, whereupon ethanol (1 g/kg, 10 ml/kg of 10% v/v ethanol in water) was injected intraperitoneally. The blood pressure was measured before the injection of ethanol and for 30 min. after injection, after which time the blood pressure has usually stabilized itself (Hellstrom and Tottmar: Pharmacology Biochemistry and Behaviour 1982:17:1103).
# [4] = system: patients; conditions: person takes disulfiram and then drinks alcohol; cited from earlier work
# [5] = cited from earlier work
# [6] = system: acetaldehyde dehydrogenase; conditions: cited from earlier work
# [7] = cited from earlier work; remark: listed apart in the source
Compound,remaining activity at 2760 µM [1] [%],also measured
CSC(=O)N1CCCC1,9,
CSC(=O)Nc1ccccc1,8,
COC(=O)N1CCCCC1 [1-piperidine carbamic acid-methyl ester],,Residual activity of aldehyde dehydrogenase (Low Km in % of ref. value) [2]: 76 % of ref. value
CCN(CC)C(=O)OC [Diethyl carbamic acid-methyl ester],,Residual activity of aldehyde dehydrogenase (Low Km in % of ref. value) [2]: 87 % of ref. value
"CSC(=O)N(C)C [X = CH3, R = CH3, R1 = CH3, dimethyl thiocarbamic acid-S-methyl ester]",16,
"CCN(CC)C(=O)SC [DTSM, diethyl thiocarbamic acid-S-methyl ester]",73,"Diastolic blood pressure of rats 30 min. after ethanol injection, % of own ref. value (X ± SD) ([3]; DTSM 30 mg/kg i.p. 1 hour before ethanol 1 g/kg i.p., p <0.01): 77.1 ± 3.6 % of own ref. value; Diastolic blood pressure of rats 30 min. after ethanol injection, % of own ref. value (X ± SD) ([3]; DTSM 30 mg/kg i.p. 2 hours before ethanol 1 g/kg i.p., p <0.05): 57.6 ± 28 % of own ref. value"
CCN(CC)C(=S)SSC(=S)N(CC)CC [disulfiram],,"disulfiram/alcohol reaction [4]: nausea, a ruddy complexion, palpitation of the heart, low blood pressure, vomiting, and a pulsating headache; t 1/2 of metabolism in blood [5]: 4 min; blocking of liver enzyme acetaldehyde dehydrogenase [6]: irreversible blocking; solubility in water [7]: very sparingly soluble in water"
CSC(=O)N1CCCCC1,16,
"CCSC(=O)N(CC)CC [X = CH2 CH3, R = CH2 CH3, R1 = CH2 CH3, diethyl thiocarbamic acid-S-ethyl ester]",8,
CCCN(CCC)C(=O)SC,11,
CSC(=O)NCCc1ccccc1,0,
CSC(=O)NCCc1ccc(O)cc1,10,

# From patent US5100916A, “Carbamic acid ester for treatment of addiction to alcohol” (Bio-Tox Diagnostics Kommanditbolag, priority 1988, dated 1992)
